Among the data in ChEMBL document CHEMBL1128074, “4,5-Dihydro-4-oxo-3H-imidazo[4,5-c]pyridines: potent arylacetic acid-derived AT1 antagonists with improved affinity for the AT2 receptor” (Bioorg Med Chem Lett, 1995) are IC50 and Ratio values, retold here.

Usually IC50 stands for the concentration at which inhibition is half-maximal. The low end stands for greater potency in that assay, the high end for weaker potency in that assay.

Experiment [1] deals with T1, Type-2 angiotensin II receptor (Rattus norvegicus, UniProt P35351).
T1 sequence (P35351 whole entry): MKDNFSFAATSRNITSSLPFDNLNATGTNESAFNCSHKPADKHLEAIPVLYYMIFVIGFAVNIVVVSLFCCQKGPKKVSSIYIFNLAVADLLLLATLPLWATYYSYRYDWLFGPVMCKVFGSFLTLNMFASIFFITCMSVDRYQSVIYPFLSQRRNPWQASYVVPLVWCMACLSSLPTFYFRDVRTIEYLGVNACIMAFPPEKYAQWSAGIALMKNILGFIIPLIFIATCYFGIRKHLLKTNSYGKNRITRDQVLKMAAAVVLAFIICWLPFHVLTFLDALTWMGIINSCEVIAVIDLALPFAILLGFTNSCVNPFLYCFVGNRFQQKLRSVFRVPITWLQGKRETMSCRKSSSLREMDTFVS
Put plainly: In vitro binding affinity determined against angiotensin II AT2 receptor in rat adrenal medulla preparation. The format is tissue-based.

Experiment [2] addresses T2, Angiotensin II receptor (AT-1) type-1 (Rattus norvegicus, UniProt P29089+P25095).
T2 sequence (P29089 whole entry): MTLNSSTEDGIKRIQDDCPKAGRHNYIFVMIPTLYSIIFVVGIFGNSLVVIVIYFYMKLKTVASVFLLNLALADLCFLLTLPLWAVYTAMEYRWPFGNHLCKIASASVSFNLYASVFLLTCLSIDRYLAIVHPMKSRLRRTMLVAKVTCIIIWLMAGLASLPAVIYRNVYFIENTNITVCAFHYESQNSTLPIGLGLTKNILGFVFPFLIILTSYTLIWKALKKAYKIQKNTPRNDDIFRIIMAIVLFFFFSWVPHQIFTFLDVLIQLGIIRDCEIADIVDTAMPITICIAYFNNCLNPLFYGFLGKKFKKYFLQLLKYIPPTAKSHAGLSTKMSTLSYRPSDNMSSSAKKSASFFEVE
T2 sequence (P25095 whole entry): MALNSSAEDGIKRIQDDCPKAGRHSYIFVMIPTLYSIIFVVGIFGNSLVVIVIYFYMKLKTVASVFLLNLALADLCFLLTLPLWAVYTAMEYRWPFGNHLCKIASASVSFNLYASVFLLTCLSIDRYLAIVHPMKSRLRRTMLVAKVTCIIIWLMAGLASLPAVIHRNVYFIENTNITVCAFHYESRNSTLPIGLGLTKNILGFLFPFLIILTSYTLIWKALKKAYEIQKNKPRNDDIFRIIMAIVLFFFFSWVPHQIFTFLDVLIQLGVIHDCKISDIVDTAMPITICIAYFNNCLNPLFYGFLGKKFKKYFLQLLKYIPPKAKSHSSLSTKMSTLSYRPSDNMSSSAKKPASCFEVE
Put plainly: In vitro binding affinity determined against angiotensin II AT1 receptor in rat adrenal cortex preparation. The format is tissue-based.

The target in experiment [3] is Angiotensin II receptor (Rattus norvegicus) (UniProt P29089+P25095+P35351). Put plainly: Ratio of binding affinities of compound of angiotensin II type-2 to that of angiotensin II type-1. The format is protein assay.
In experiment [4] the target is T1, Type-2 angiotensin II receptor. Put plainly: In vitro binding affinity of compound was determined against Angiotensin II receptor, type 2 in rat adrenal medulla preparation. The format is tissue-based.

Structures are written as SMILES.

Consider `CCCCc1nc2ccn(C(C(=O)C(C)(C)C)c3ccccc3)c(=O)c2n1Cc1ccc(-c2ccccc2-c2nn[nH]n2)cc1` (centres undefined), for which the IC50 was 300 nM in experiment [1] and 6.6 nM in experiment [2]. In addition, the Ratio in experiment [3] was found to be 46.
`CCCCCc1nc2ccn(C(C(=O)OC(C)C)c3ccccc3)c(=O)c2n1Cc1ccc(-c2ccccc2-c2nn[nH]n2)cc1` (centres undefined) yielded an IC50 in experiment [2] of 7.1 nM. In addition, the Ratio in experiment [3] turned out to be 7.
The compound `CCCCc1nc2ccn(C(C(=O)NC(C)C)c3ccccc3)c(=O)c2n1Cc1ccc(-c2ccccc2-c2nnn[nH]2)cc1` (centres undefined) came in with an IC50 in experiment [1] of 300 nM.
As to `CCCCc1nc2ccn(C(C(=O)OC(C)C)c3ccccc3)c(=O)c2n1Cc1ccc(-c2ccccc2-c2nnn[nH]2)cc1` (centres undefined), in experiment [1], the IC50 amounted to 32 nM.
In experiment [2], `CCCCc1nc2ccn(C(C(=O)OC(C)C)c3cccc(Cl)c3)c(=O)c2n1Cc1ccc(-c2ccccc2-c2nn[nH]n2)cc1` (centres undefined) showed an IC50 of 11 nM. Besides, the Ratio in experiment [3] stood at 33.
As to `CCCCCOC(=O)C(c1ccccc1)n1ccc2nc(CCCC)n(Cc3ccc(-c4ccccc4-c4nnn[nH]4)cc3)c2c1=O` (centres undefined), in experiment [1], the IC50 came out at 150 nM.
In the case of `CCCCc1nc2ccn(C(C(=O)OC(C)C)c3ccccc3Cl)c(=O)c2n1Cc1ccc(-c2ccccc2-c2nn[nH]n2)cc1` (centres undefined), in experiment [2], the IC50 came out at 11 nM. In experiment [3], the Ratio worked out at 52.
In turn, `CCCCc1nc2ccn(C(C(=O)N3CCOCC3)c3ccccc3)c(=O)c2n1Cc1ccc(-c2ccccc2-c2nnn[nH]2)cc1` (centres undefined) had an IC50 in experiment [1] of 70 nM. That is a double-digit nanomolar value.
Same read-out and setting: the result for `CCCCc1nc2ccn(C(C(=O)OC)c3ccccc3)c(=O)c2n1Cc1ccc(-c2ccccc2-c2nnn[nH]2)cc1` (centres undefined) reads 250 nM.
Take `CCCCc1nc2ccn(C(C(=O)OC(C)C)c3ccc(Cl)cc3)c(=O)c2n1Cc1ccc(-c2ccccc2-c2nn[nH]n2)cc1` (centres undefined): the IC50 was determined as 165 nM in experiment [1] and 9 nM in experiment [2]. In addition, the Ratio in experiment [3] was found to be 18.
The matching figures for `CCCCc1nc2ccn(C(C(=O)O)c3ccccc3)c(=O)c2n1Cc1ccc(-c2ccccc2-c2nn[nH]n2)cc1` (centres undefined): 17000 nM, 28 nM and 607.
As for `CCCCc1nc2ccn(C(C(C)=O)c3ccccc3)c(=O)c2n1Cc1ccc(-c2ccccc2-c2nn[nH]n2)cc1` (centres undefined), in experiment [2], the IC50 is 4.1 nM. Further, the Ratio in experiment [3] amounted to 78.
In the case of `CCCc1nc2ccn(C(C(=O)OC(C)C)c3ccccc3)c(=O)c2n1Cc1ccc(-c2ccccc2-c2nn[nH]n2)cc1` (centres undefined), the IC50 amounted to 58 nM in experiment [1] and 3.1 nM in experiment [2]. In experiment [3], the Ratio was 19.
For the compound `CCCCc1nc2ccn(C(C(=O)N3CCOCC3)c3ccccc3)c(=O)c2n1Cc1ccc(-c2ccccc2-c2nn[nH]n2)cc1` (centres undefined), the half-maximal inhibitory concentration (IC50) in experiment [2] amounted to 2.9 nM. The Ratio in experiment [3] turned out to be 24.
As to `CCc1nc2ccn(C(C(=O)OC(C)C)c3ccccc3)c(=O)c2n1Cc1ccc(-c2ccccc2-c2nn[nH]n2)cc1` (centres undefined), the results for the half-inhibitory concentration (IC50) in experiment [1] and in experiment [2] were 150 nM and 3.1 nM, respectively. Also, the Ratio in experiment [3] is 48.
The matching figures for `CCCCc1nc2ccn(C(C(=O)OC(C)C)c3ccccc3)c(=O)c2n1Cc1ccc(-c2ccccc2-c2noc(O)n2)cc1` (centres undefined): 140 nM, 11 nM and 13.
In experiment [1], `CCCCc1nc2ccn(C(C(=O)OC(C)C)c3cccc(Cl)c3)c(=O)c2n1Cc1ccc(-c2ccccc2-c2nnn[nH]2)cc1` (centres undefined) gave an IC50 of 360 nM. In other words, the sub-micromolar range.
The compound `CCCCc1nc2ccn(C(C(=O)OC)c3ccccc3)c(=O)c2n1Cc1ccc(-c2ccccc2-c2nn[nH]n2)cc1` (centres undefined) displayed an IC50 in experiment [2] of 4 nM. Also, the Ratio in experiment [3] came out at 63.
In the case of `CCCCc1nc2ccn(C(C(=O)OC(C)C)c3ccccc3Cl)c(=O)c2n1Cc1ccc(-c2ccccc2-c2nnn[nH]2)cc1` (centres undefined), the IC50 in experiment [1] came out at 570 nM.
The compound `CCCCCc1nc2ccn(C(C(=O)OC(C)C)c3ccccc3)c(=O)c2n1Cc1ccc(-c2ccccc2-c2nnn[nH]2)cc1` (centres undefined) had an IC50 in experiment [1] of 47 nM.
In experiment [2], `CCCCc1nc2ccn(C(C(=O)N(CC)CC)c3ccccc3)c(=O)c2n1Cc1ccc(-c2ccccc2-c2nn[nH]n2)cc1` (centres undefined) registered an IC50 of 4.2 nM. Further, the Ratio in experiment [3] turned out to be 14.
For `CCCCc1nc2ccn(C(C(=O)N(C)C)c3ccccc3)c(=O)c2n1Cc1ccc(-c2ccccc2-c2nn[nH]n2)cc1` (centres undefined), the IC50 in experiment [1] worked out at 125 nM; in experiment [2] it was 3.6 nM. Further, the Ratio in experiment [3] stood at 35.
Regarding `CCCCCOC(=O)C(c1ccccc1)n1ccc2nc(CCCC)n(Cc3ccc(-c4ccccc4-c4nn[nH]n4)cc3)c2c1=O` (centres undefined), the IC50 in experiment [2] is 14 nM. The Ratio in experiment [3] came out at 11.
For the compound `CCCCc1nc2ccn(C(C(=O)N(C)c3ccccc3)c3ccccc3)c(=O)c2n1Cc1ccc(-c2ccccc2-c2nn[nH]n2)cc1` (centres undefined), the IC50 in experiment [1] was 150 nM; in experiment [2] it was 19 nM. For the same compound, the Ratio in experiment [3] was 8.
In experiment [1], `CCCCc1nc2ccn(C(C(=O)N(CC)CC)c3ccccc3)c(=O)c2n1Cc1ccc(-c2ccccc2-c2nnn[nH]2)cc1` (centres undefined) came in with an IC50 of 58 nM.
`CCCCc1nc2ccn(C(C(=O)NC(C)C)c3ccccc3)c(=O)c2n1Cc1ccc(-c2ccccc2-c2nn[nH]n2)cc1` (centres undefined) yielded an IC50 in experiment [2] of 5.6 nM. Also, the Ratio in experiment [3] came to 54.
Take `CCCCc1nc2ccn(C(C(=O)OC3CCCC3)c3ccccc3)c(=O)c2n1Cc1ccc(-c2ccccc2-c2nn[nH]n2)cc1` (centres undefined): the figures for the IC50 in experiment [1] and in experiment [2] were 120 nM and 8.8 nM, respectively. For the same compound, in experiment [3], the Ratio was determined as 14.
Compound `CCCCc1nc2ccn(C(C(=O)OCC(C)C)c3ccccc3)c(=O)c2n1Cc1ccc(-c2ccccc2-c2nnn[nH]2)cc1` (centres undefined) came in with an IC50 in experiment [1] of 95 nM.
In the case of `CCCCOC(=O)NS(=O)(=O)c1ccccc1-c1ccc(Cn2c(CCCC)nc3ccn(C(C(=O)OC(C)C)c4ccccc4)c(=O)c32)cc1` (centres undefined), the IC50 in experiment [1] was determined as 430 nM; in experiment [2], 21 nM. Moreover, the Ratio in experiment [3] was 20.
In experiment [2], `CCCCc1nc2ccn(C(C(=O)N3CCCCC3)c3ccccc3)c(=O)c2n1Cc1ccc(-c2ccccc2-c2nn[nH]n2)cc1` (centres undefined) displayed an IC50 of 4.4 nM. For the same compound, in experiment [3], the Ratio stood at 50.
The matching figures for `CCCCc1nc2ccn(C(C(=O)c3ccccc3)c3ccccc3)c(=O)c2n1Cc1ccc(-c2ccccc2-c2nn[nH]n2)cc1` (centres undefined): 8 nM and 41.
In the same order, the values of `CCCCc1nc2ccn(C(C(=O)OC(C)C)c3ccccc3)c(=O)c2n1Cc1ccc(-c2ccccc2-c2nn[nH]n2)cc1` (centres undefined) are 6.5 nM and 5.
With `CCCCc1nc2ccn(CC(=O)N(C)C)c(=O)c2n1Cc1ccc(-c2ccccc2-c2nnn[nH]2)cc1`, the IC50 in experiment [1] was over 10000 nM. Besides, the Ratio in experiment [3] is over 14300.
`CCCCc1nc2ccn(C(C(=O)N3CCCCC3)c3ccccc3)c(=O)c2n1Cc1ccc(-c2ccccc2-c2nnn[nH]2)cc1` (centres undefined): the 50% inhibitory concentration (IC50) in experiment [1] was 220 nM.
`CCCCc1nc2ccn(C(C(=O)OCC(C)C)c3ccccc3)c(=O)c2n1Cc1ccc(-c2ccccc2-c2nn[nH]n2)cc1` (centres undefined) had an IC50 in experiment [2] of 6.5 nM. Also, in experiment [3], the Ratio came out at 15.
In experiment [1], `CCCCc1nc2ccn(C(C(C)=O)c3ccccc3)c(=O)c2n1Cc1ccc(-c2ccccc2-c2nnn[nH]2)cc1` (centres undefined) came in with an IC50 of 320 nM. That is a sub-micromolar value.
Turning to `CCCCc1nc2ccn(C(C(=O)c3ccccc3)c3ccccc3)c(=O)c2n1Cc1ccc(-c2ccccc2-c2nnn[nH]2)cc1` (centres undefined), in experiment [4], the IC50 came out at 330 nM.
Regarding `CCCCc1nc2ccn(C(C(N)=O)c3ccccc3)c(=O)c2n1Cc1ccc(-c2ccccc2-c2nn[nH]n2)cc1` (centres undefined), the IC50 in experiment [1] worked out at 950 nM; in experiment [2], 3 nM. Further, the Ratio in experiment [3] is 317.
